Experimental data from patent publication US7405205B2, “Antitumor antisense sequences directed against R1 and R2 components of ribonucleotide reductase” (Lorus Therapeutics Inc., priority 1996, dated 2008).

Columns and labels:
Assay in all cases: Drug sensitivity by relative colony forming efficiency
Format in all cases: cell-based, mouse
[1] = tested on: B3/SH cells (BALB/c 3T3, empty vector)
[2] = tested on: B3/mR2 cells (BALB/c 3T3, R2 expression vector)
[3] = tested on: B3/R2c2 cells (clone of B3/mR2)
[4] = tested on: N/SH cells (NIH-3T3, empty vector)
[5] = tested on: N/R2-4 cells (NIH-3T3, R2 expression vector)
[6] = tested on: N/R2+ASR2 cells (NIH-3T3, R2 and R2 antisense vectors)
[7] = tested on: RP3/SH cells (10T½, H-ras and mutant p53)
[8] = tested on: RP3/ASR2 cells (RP3 with R2 antisense vector)
[9] = tested on: RP6/SH cells (10T½, H-ras and mutant p53)
[10] = tested on: RP6/ASR2 cells (RP6 with R2 antisense vector)

Which “Relative Colony Forming Efficiencies” value ([1]; Hydroxyurea 0.1 mM) does the source give for `NC(=O)NO` [Hydroxyurea, hydroxyurea] here?
Its value is 3.3 ± 1.4 × 10^4.

What about the “Relative Colony Forming Efficiencies” value ([1]; Hydroxyurea 0.4 mM) of the same compound?
Its value is 0.17 ± 0.19 × 10^4.

And the “Relative Colony Forming Efficiencies” value ([1]; Hydroxyurea 0.5 mM)?
Its value is 0.21 ± 0.14 × 10^4.

What about the “Relative Colony Forming Efficiencies” value ([1]; Hydroxyurea 0.6 mM) of the same compound?
Its value is 0.41 ± 0.22 × 10^4.

And the “Relative Colony Forming Efficiencies” value ([1]; Hydroxyurea 0.8 mM)?
Its value is 0.19 ± 0.62 × 10^4.

What about the “Relative Colony Forming Efficiencies” value ([2]; Hydroxyurea 0.1 mM) of the same compound?
The value was 1310 ± 319.0 × 10^4.

What about the “Relative Colony Forming Efficiencies” value ([2]; Hydroxyurea 0.4 mM) of the same compound?
Its value is 14.6 ± 4.0 × 10^4.

And the “Relative Colony Forming Efficiencies” value ([2]; Hydroxyurea 0.5 mM)?
Its value is 6.5 ± 4.6 × 10^4.

And the “Relative Colony Forming Efficiencies” value ([2]; Hydroxyurea 0.6 mM)?
The value was 5.2 ± 3.7 × 10^4.

And the “Relative Colony Forming Efficiencies” value ([2]; Hydroxyurea 0.8 mM)?
The value was 2.6 ± 1.4 × 10^4.

And the “Relative Colony Forming Efficiencies” value ([3]; Hydroxyurea 0.1 mM)?
The value was 830.8 ± 97.0 × 10^4.

What about the “Relative Colony Forming Efficiencies” value ([3]; Hydroxyurea 0.4 mM) of the same compound?
Its value is 33.7 ± 11.0 × 10^4.

What about the “Relative Colony Forming Efficiencies” value ([3]; Hydroxyurea 0.5 mM) of the same compound?
The value was 26.9 ± 11.9 × 10^4.

What about the “Relative Colony Forming Efficiencies” value ([3]; Hydroxyurea 0.6 mM) of the same compound?
The value was 12.5 ± 4.6 × 10^4.

What about the “Relative Colony Forming Efficiencies” value ([3]; Hydroxyurea 0.8 mM) of the same compound?
Its value is 13.2 ± 6.4 × 10^4.

What about the “Relative Colony Forming Efficiencies” value ([4]; Hydroxyurea 0.3 mM) of the same compound?
Its value is 1.14 ± 0.12 × 10^4.

And the “Relative Colony Forming Efficiencies” value ([4]; Hydroxyurea 0.4 mM)?
The value was 0.71 ± 0.17 × 10^4.

And the “Relative Colony Forming Efficiencies” value ([5]; Hydroxyurea 0.3 mM)?
Its value is 46.1 ± 9.8 × 10^4.

And the “Relative Colony Forming Efficiencies” value ([5]; Hydroxyurea 0.4 mM)?
The value was 18.0 ± 6.7 × 10^4.

And the “Relative Colony Forming Efficiencies” value ([6]; Hydroxyurea 0.3 mM)?
Its value is 0.49 ± 0.34 × 10^4.

And the “Relative Colony Forming Efficiencies” value ([6]; Hydroxyurea 0.4 mM)?
The value was 0.14 ± 0.14 × 10^4.

What about the “Relative Colony Forming Efficiencies” value ([7]; Hydroxyurea 0.1 mM) of the same compound?
Its value is 263.6 ± 19.3 × 10^4.

What about the “Relative Colony Forming Efficiencies” value ([7]; Hydroxyurea 0.2 mM) of the same compound?
Its value is 53.6 ± 13.7 × 10^4.

What about the “Relative Colony Forming Efficiencies” value ([7]; Hydroxyurea 0.3 mM) of the same compound?
The value was 20.8 ± 7.5 × 10^4.

And the “Relative Colony Forming Efficiencies” value ([7]; Hydroxyurea 0.4 mM)?
The value was 5.8 ± 1.9 × 10^4.

What about the “Relative Colony Forming Efficiencies” value ([7]; Hydroxyurea 0.5 mM) of the same compound?
The value was 4.8 ± 1.9 × 10^4.

What about the “Relative Colony Forming Efficiencies” value ([7]; Hydroxyurea 0.6 mM) of the same compound?
Its value is 0.7 ± 0.3 × 10^4.

What about the “Relative Colony Forming Efficiencies” value ([7]; Hydroxyurea 0.8 mM) of the same compound?
Its value is 0.8 ± 0.3 × 10^4.

And the “Relative Colony Forming Efficiencies” value ([8]; Hydroxyurea 0.1 mM)?
Its value is 109.3 ± 43 × 10^4.

And the “Relative Colony Forming Efficiencies” value ([8]; Hydroxyurea 0.2 mM)?
Its value is 22.9 ± 3.1 × 10^4.

And the “Relative Colony Forming Efficiencies” value ([8]; Hydroxyurea 0.3 mM)?
The value was 6.6 ± 2.5 × 10^4.

What about the “Relative Colony Forming Efficiencies” value ([8]; Hydroxyurea 0.4 mM) of the same compound?
Its value is 1.0 ± 0.2 × 10^4.

What about the “Relative Colony Forming Efficiencies” value ([8]; Hydroxyurea 0.5 mM) of the same compound?
Its value is 0.2 ± 0.1 × 10^4.

And the “Relative Colony Forming Efficiencies” value ([8]; Hydroxyurea 0.6 mM)?
The value was 0.3 ± 0.1 × 10^4.

And the “Relative Colony Forming Efficiencies” value ([8]; Hydroxyurea 0.8 mM)?
The value was 0.1 ± 0.05 × 10^4.

What about the “Relative Colony Forming Efficiencies” value ([9]; Hydroxyurea 0.1 mM) of the same compound?
Its value is 201.3 ± 27.2 × 10^4.

What about the “Relative Colony Forming Efficiencies” value ([9]; Hydroxyurea 0.2 mM) of the same compound?
Its value is 35.5 ± 8.4 × 10^4.

And the “Relative Colony Forming Efficiencies” value ([9]; Hydroxyurea 0.3 mM)?
The value was 12.6 ± 2.4 × 10^4.

And the “Relative Colony Forming Efficiencies” value ([9]; Hydroxyurea 0.4 mM)?
Its value is 10.8 ± 4.1 × 10^4.

What about the “Relative Colony Forming Efficiencies” value ([9]; Hydroxyurea 0.5 mM) of the same compound?
Its value is 12.1 ± 3.9 × 10^4.

And the “Relative Colony Forming Efficiencies” value ([9]; Hydroxyurea 0.6 mM)?
The value was 6.6 ± 2.9 × 10^4.

What about the “Relative Colony Forming Efficiencies” value ([9]; Hydroxyurea 0.8 mM) of the same compound?
Its value is 1.7 ± 1.2 × 10^4.

What about the “Relative Colony Forming Efficiencies” value ([10]; Hydroxyurea 0.1 mM) of the same compound?
Its value is 43.8 ± 12.3 × 10^4.

And the “Relative Colony Forming Efficiencies” value ([10]; Hydroxyurea 0.2 mM)?
Its value is 8.6 ± 2.5 × 10^4.

And the “Relative Colony Forming Efficiencies” value ([10]; Hydroxyurea 0.3 mM)?
The value was 4.5 ± 1.1 × 10^4.

And the “Relative Colony Forming Efficiencies” value ([10]; Hydroxyurea 0.4 mM)?
The value was 1.2 ± 0.5 × 10^4.

And the “Relative Colony Forming Efficiencies” value ([10]; Hydroxyurea 0.5 mM)?
The value was 1.8 ± 0.9 × 10^4.

What about the “Relative Colony Forming Efficiencies” value ([10]; Hydroxyurea 0.6 mM) of the same compound?
The value was 1.5 ± 0.7 × 10^4.

What about the “Relative Colony Forming Efficiencies” value ([10]; Hydroxyurea 0.8 mM) of the same compound?
The value was 0.4 ± 0.3 × 10^4.
